# From patent US5214067A, “Fungicidal compositions and method” (Merck & Co., Inc., priority 1990, dated 1993)
# Key:
# Candida albicans MY 1055 = assay: Minimum inhibitory concentration (broth dilution) against Candida albicans MY 1055; assay type: cell-based; conditions: MY1055, C. albicans MY 1055, YNB/G, 37° C., 250 rpm, 17 hr
# Protocol: 11-(3-hydroxymethyl-4-oxo-2oxetanyl)-7-methyl-2,4-undecadienoic acid (β-lactone compound), was solubilized in 100 percent dimethylsulfoxide (DMSO). Twofold dilutions were made with DMSO to obtain final drug concentrations in the broth dilution assay tubes ranging from […].
# The Candida albicans, MY 1055 yeast culture, maintained in yeast nitrogen base/glucose (1/2 percent), YNB/G, was transferred to fresh medium and incubated 7 hours at 37° with shaking at 250 rpm. After incubation, each culture was diluted to A600 =0.0004 U/ml which was previously determined to be equal to 3000 cfu/ml (colony forming units per milliliter).
# 1 milliliter of YNB/G inoculated with yeast culture was added to sterile test tubes. The tubes were incubated at 250 rpm, 37° C. for 17 hr. The minimum inhibitory concentration (MIC) was recorded as the lowest concentration of drug […].
# In a similar manner, the pyranyl ester was solubilized in dimethyl sulfoxide and dilution assay tubes from […] prepared. […] The MIC against C. C. albicans MY 1055 was determined to be 2 μg/ml.
# C. albicans = assay: Synergistic and fungicidal effect: viable cell count (CFU/ml) of exponential phase C. albicans culture over time, drugs alone and in combination; assay type: cell-based, Candida albicans; conditions: β-lactone 3.1 μg/ml, pyranyl glycine ester 2 μg/ml, alone or together
# Protocol: Synergistic and fungicidal effects were determined by treating exponential phase C. albicans culture with β-Lactone and pyranyl glycine ester at respective MIC level alone and in combination. Exponential phase cultures were prepared by diluting an overnight culture 1:50 or 1:1000 YNB/G. After incubating the diluted cells 7 or 17 hrs. at 37° C., the exponential phase cells were diluted in YNB/G to A600 =0.004u/ml to obtain 3000 cfu/ml.
# 10 microliters (μl) of β-lactone compound or pyranyl glycine ester compound prepared in DMSO was added to 1 ml of diluted exponential phase cells. The tubes were incubated at 37° C. at 250 rpm for about 24 hours. Periodically, aliquots were diluted in 0.9% saline and plated on Sabouraud dextrose agar plates to determine the number of cfu/ml.
# [1] = time 2 hours, no drug 4.45 × 10^3
# [2] = time 4.5 hours, no drug 1.75 × 10^4
# [3] = time 7.5 hours, no drug 1.10 × 10^5
# [4] = time 16.0 hours, no drug 5.35 × 10^6
# [5] = time 20.5 hours, no drug 5.30 × 10^7
# [6] = time 24.0 hours, no drug 7.65 × 10^7
SMILES,MIC (Candida albicans MY 1055),"Fungal Growth (CFU/ML) (C. albicans; time 0 hours (start), 37° C.)",Fungal Growth (CFU/ML) (C. albicans; [1]),Fungal Growth (CFU/ML) (C. albicans; [2]),Fungal Growth (CFU/ML) (C. albicans; [3]),Fungal Growth (CFU/ML) (C. albicans; [4]),Fungal Growth (CFU/ML) (C. albicans; [5]),Fungal Growth (CFU/ML) (C. albicans; [6])
CC(=CC(=O)O)C=C(C)CC(C)CCCCC1OC(=O)C1CO (stereo not drawn) [β-Lactone Compound],3.1 µg/mL,2.70 × 10^3 CFU/ML,5.95 × 10^3 CFU/ML,4.10 × 10^3 CFU/ML,4.55 × 10^3 CFU/ML,1.70 × 10^3 CFU/ML,1.50 × 10^3 CFU/ML,1.50 × 10^3 CFU/ML
"CCCC=CC=CC=C(C)C1OCC(C)C(OC)C1OC(=O)CN (stereo not shown) [Pyranyl Glycine Ester Compound, (2,3,4,5)-tetrahydro-4-methoxy-5-methyl-2-(1-methyl-1,3,5-nonatrienyl)-2-pyran-3-yl-glycine]",2 µg/mL,2.70 × 10^3 CFU/ML,6.05 × 10^3 CFU/ML,9.60 × 10^3 CFU/ML,1.40 × 10^4 CFU/ML,1.00 × 10^5 CFU/ML,1.02 × 10^6 CFU/ML,1.37 × 10^6 CFU/ML
